How the values were obtained:
[1] = for viscosity / mass density: 101.33 kPa, Liquid; for viscosity: Falling or rolling sphere viscometry; for mass density: Vibrating tube method
[2] = Molar enthalpy of transition or fusion; conditions: Crystal; DSC

CCCC[n+]1ccc2ccccc2c1.O=S(=O)([N-]S(=O)(=O)C(F)(F)F)C(F)(F)F [2-butylisoquinolinium bis[(trifluoromethyl)sulfonyl]amide]
[1]
Conditions | mass density [kg/m3] | viscosity [mPa·s]
323.2 K | 1413.21 | 71.07
328.2 K | 1408.78 | 56.23
333.2 K | 1404.32 | 45.14
338.2 K | 1399.88 | 38.46
343.2 K | 1395.47 | 32.08
348.2 K | 1391.06 | 27.1
353.2 K | 1386.66 | 23.02
358.2 K | 1382.26 | 19.87
363.2 K | 1377.88 | 16.14

[1], DTA
Conditions | Glass transition temperature [°C] | Normal melting temperature [°C]
Crystal | – | 48
Glass | -55.2 | –

Conditions | Molar enthalpy of transition or fusion [kcal/mol]
[2] | 11

Reference: the NIST ThermoML archive (doi:10.1016/j.jct.2011.02.006)
